Source: ChEMBL document CHEMBL1177692 (Bioorg Med Chem, 2010)

What follows are compounds tested against Carbonic anhydrase 9 (Homo sapiens, UniProt Q16790) (assay: Inhibition of human recombinant carbonic anhydrase 9 catalytic domain preincubated for 15 mins by CO2 hydration method).

Compound	Ki [nM]
COc1ccc2c(CC(=O)Nc3ccc(S(N)(=O)=O)cc3)cc(=O)oc2c1	87
COc1ccc2c(CC(=O)Nc3cc(C(F)(F)F)c(S(N)(=O)=O)cc3S(N)(=O)=O)cc(=O)oc2c1	14
COc1ccc2c(CC(=O)Nc3cccc(S(N)(=O)=O)c3)cc(=O)oc2c1	59
